Each compound was assayed on endogenous cellular STAT1 (phosphorylated at Tyr701) in NCI-H1373 cells (assay: Phospho-STAT1 (Tyr701) LANCE Ultra TR-FRET Detection Assay). Conditions: 48 hours, phospho-STAT1 (Tyr701) induction, read-out: NH1373 pSTAT1 EC50.
Assay type: cell-based

SMILES | EC50 [nM]
Cc1cnc(-c2cc3ccn(C[C@@H]4CCC[C@H](Nc5cn[nH]c(=O)c5C(F)(F)F)C4)c(=O)c3cc2F)nc1 [Example 242] | 9.44
Cc1cnc(-c2cc3ccn(C[C@@H]4CCC[C@H](Nc5cn[nH]c(=O)c5C(F)(F)F)C4)c(=O)c3cc2F)nc1 [Example 240] | 4.35

Same assay, conditions: Homo sapiens, NCI-H1373, 48 h, phospho-STAT1 (Tyr701) induction, read-out: NH1373 pSTAT1 EC50

SMILES | EC50 [nM]
C[C@@H](CCCn1ccc2cc(-c3ccc(C(F)F)c(N)n3)c(F)cc2c1=O)Nc1cn[nH]c(=O)c1C(F)(F)F [Example 224, (S)-6-(6-amino-5-(difluoromethyl)pyridin-2-yl)-7-fluoro-2-(4-((6-oxo-5-(trifluoromethyl)-1,6-dihydropyridazin-4-yl)amino)pentyl)isoquinolin-1(2H)-one] | 6.14
[2H]C([2H])([2H])OC[C@@H](CCCn1ccc2cc(-c3ncc(C(F)(F)F)cn3)c(F)cc2c1=O)Nc1cn[nH]c(=O)c1C(F)(F)F [Example 181, (R)-7-fluoro-2-(5-(methoxy-d3)-4-((6-oxo-5-(trifluoromethyl)-1,6-dihydropyridazin-4-yl)amino)pentyl)-6-(5-(trifluoromethyl)pyrimidin-2-yl)isoquinolin-1(2H)-one] | 14.2
C[C@@H](CCCn1ccc2cc(-c3nc4cnccn4n3)c(F)cc2c1=O)Nc1cn[nH]c(=O)c1C(F)(F)F [Example 334, (S)-6-([1,2,4]triazolo[1,5-a]pyrazin-2-yl)-7-fluoro-2-(4-((6-oxo-5-(trifluoromethyl)-1,6-dihydropyridazin-4-yl)amino)pentyl)isoquinolin-1(2H)-one] | 24.1
COc1cnc(-c2cc3ccn(CCC[C@@H]4CCCN4c4cn[nH]c(=O)c4C(F)(F)F)c(=O)c3cc2F)nc1N [Example 122, (S)-6-(4-amino-5-methoxypyrimidin-2-yl)-7-fluoro-2-(3-(1-(6-oxo-5-(trifluoromethyl)-1,6-dihydropyridazin-4-yl)pyrrolidin-2-yl)propyl)isoquinolin-1(2H)-one] | 8.04
C[C@@H](CCCn1ccc2cc(-c3ncc4c(n3)CCC4)c(F)cc2c1=O)Nc1cn[nH]c(=O)c1C(F)(F)F [Example 94, (S)-6-(6,7-dihydro-5H-cyclopenta[d]pyrimidin-2-yl)-7-fluoro-2-(4-((6-oxo-5-(trifluoromethyl)-1,6-dihydropyridazin-4-yl)amino)pentyl)isoquinolin-1(2H)-one] | 22.8
N#Cc1cnc(-c2cc3ccn(CCC[C@@H](Nc4cn[nH]c(=O)c4C(F)(F)F)C4CC4)c(=O)c3cc2F)nc1N [Example 145, 4-amino-2-[2-[(4R)-4-cyclopropyl-4-[[6-oxo-5-(trifluoromethyl)-1H-pyridazin-4-yl]amino]butyl]-7-fluoro-1-oxoisoquinolin-6-yl]pyrimidine-5-carbonitrile] | 14.1
C[C@@H](CCCn1ccc2cc(-c3ncc4cc(F)ccc4n3)c(F)cc2c1=O)Nc1cn[nH]c(=O)c1C(F)(F)F [Example 322, (S)-7-fluoro-6-(6-fluoroquinazolin-2-yl)-2-(4-((6-oxo-5-(trifluoromethyl)-1,6-dihydropyridazin-4-yl)amino)pentyl)isoquinolin-1(2H)-one] | 5.64

Now from value to compound:

EC50 [nM] | SMILES
2.28 | O=c1[nH]ncc(N[C@H](CCCn2ccc3cc(-c4cnc(C(F)(F)F)cn4)c(F)cc3c2=O)COC(F)F)c1C(F)(F)F [Example 417, (R)-2-(5-(difluoromethoxy)-4-((6-oxo-5-(trifluoromethyl)-1,6-dihydropyridazin-4-yl)amino)pentyl)-7-fluoro-6-(5-(trifluoromethyl)pyrazin-2-yl)isoquinolin-1(2H)-one]
5.25 | C[C@@H](CC(O)Cn1ccc2cc(-c3ncc(C(F)(F)F)cn3)c(F)cc2c1=O)Nc1cn[nH]c(=O)c1C(F)(F)F (stereo partly drawn) [Example 478, 7-fluoro-2-[(4S)-2-hydroxy-4-[[6-oxo-5-(trifluoromethyl)-1H-pyridazin-4-yl]amino]pentyl]-6-[5-(trifluoromethyl)pyrimidin-2-yl]isoquinolin-1-one]
5.46 | Cc1cn(C[C@@H]2CCC[C@H](Nc3cn[nH]c(=O)c3C(F)(F)F)C2)c(=O)c2cc(F)c(-c3ncc(C(F)(F)F)cn3)cc12 [Example 485, 7-fluoro-4-methyl-2-(((1R,3S)-3-((6-oxo-5-(trifluoromethyl)-1,6-dihydropyridazin-4-yl)amino)cyclohexyl)methyl)-6-(5-(trifluoromethyl)pyrimidin-2-yl)isoquinolin-1(2H)-one]
15.6 | [2H]C([2H])([2H])OC[C@@H](CCCn1cnc2cc(-c3ncc(C(F)F)c(N)n3)c(F)cc2c1=O)Nc1cn[nH]c(=O)c1C(F)(F)F [Example 433]
270 | O=c1[nH]ncc(N[C@@H]2CC[C@H](Cn3ccc4cc(-c5ncc(C(F)(F)F)cn5)c(F)cc4c3=O)C2)c1C(F)(F)F [Example 446, 7-fluoro-2-(((1S,3R)-3-((6-oxo-5-(trifluoromethyl)-1,6-dihydropyridazin-4-yl)amino)cyclopentyl)methyl)-6-(5-(trifluoromethyl)pyrimidin-2-yl)isoquinolin-1(2H)-one]
25.6 | Nc1nc(-c2cc3ccn(C[C@H]4CC[C@@H](Nc5cn[nH]c(=O)c5C(F)(F)F)C4)c(=O)c3cc2F)ncc1C(F)(F)F [Example 447, 6-(4-amino-5-(trifluoromethyl)pyrimidin-2-yl)-7-fluoro-2-(((1S,3R)-3-((6-oxo-5-(trifluoromethyl)-1,6-dihydropyridazin-4-yl)amino)cvclopentyl)methyl)isoquinolin-1(2H)-one]
44.8 | Nc1nc(-c2cc3ncn(CCC[C@H](COC(F)F)Nc4cn[nH]c(=O)c4C(F)(F)F)c(=O)c3cc2F)ncc1OC(F)F [Example 374, (R)-7-(4-amino-5-(difluoromethoxy)pyrimidin-2-yl)-3-(5-(difluoromethoxy)-4-((6-oxo-5-(trifluoromethyl)-1,6-dihydropyridazin-4-yl)amino)pentyl)-6-fluoroquinazolin-4(3H)-one]
28.2 | C[C@@H](CCCn1ccc2cc(-c3ncc(C4(F)COC4)c(N)n3)c(F)cc2c1=O)Nc1cn[nH]c(=O)c1C(F)(F)F [Example 344, (S)-6-(4-amino-5-(3-fluorooxetan-3-yl)pyrimidin-2-yl)-7-fluoro-2-(4-((6-oxo-5-(trifluoromethyl)-1,6-dihydropyridazin-4-yl)amino)pentyl)isoquinolin-1(2H)-one]
29 | O=c1[nH]ncc(N[C@H]2CCC[C@@H](Cn3ccc4cc(-c5ncc(OCCO)cn5)c(F)cc4c3=O)C2)c1C(F)(F)F [Example 495, 7-fluoro-6-[5-(2-hydroxyethoxy)pyrimidin-2-yl]-2-[[(1R,3S)-3-[[6-oxo-5-(trifluoromethyl)-1H-pyridazin-4-yl]amino]cyclohexyl]methyl]isoquinolin-1-one]
9.84 | CC[C@@H](CCCn1cnc2cc(-c3ncc(Cl)c(N)n3)c(F)cc2c1=O)Nc1cn[nH]c(=O)c1C(F)(F)F [Example 342, (S)-7-(4-amino-5-chloropyrimidin-2-yl)-6-fluoro-3-(4-((6-oxo-5-(trifluoromethyl)-1,6-dihydropyridazin-4-yl)amino)hexyl)quinazolin-4(3H)-one]
7.13 | O=c1[nH]ncc(N[C@H](CCCn2cnc3cc(-c4cnc(C(F)F)cn4)c(F)cc3c2=O)COC(F)F)c1C(F)(F)F [Example 372, (R)-3-(5-(difluoromethoxy)-4-((6-oxo-5-(trifluoromethyl)-1,6-dihydropyridazin-4-yl)amino)pentyl)-7-(5-(difluoromethyl)pyrazin-2-yl)-6-fluoroquinazolin-4(3H)-one]
